Experiments:
[1] = target: Human immunodeficiency virus type 1 protease (Human immunodeficiency virus 1, UniProt Q72874); experiment: Concentration required for in vitro inhibitory activity against HIV-1 protease
MT2 = experiment: Concentration required for in vitro antiviral activity against HIV-1 virus infected MT2 cells; type: functional, cell-based; settings: Homo sapiens
CCRF-CEM = experiment: Concentration required for in vitro antiviral activity against HIV-1 virus infected CEM cells; type: functional, cell-based; settings: Homo sapiens

| SMILES | IC50 [1] [nM] | IC50 (MT2) [nM] | IC50 (CCRF-CEM) [nM] |
| --- | --- | --- | --- |
| CC(=O)N[C@@H](CC(=O)OCc1ccccc1)C(=O)N[C@@H](Cc1ccccc1)[C@H](O)Cc1ccccc1C(=O)NC(C)(C)C | 85 |  |  |
| CC(=O)N[C@H](CC(=O)OCc1ccccc1)C(=O)N[C@@H](Cc1ccccc1)[C@H](O)Cc1ccccc1C(=O)NC(C)(C)C | > 1000 |  |  |
| CC(C)(C)NC(=O)c1ccccc1C[C@@H](O)[C@H](Cc1ccccc1)NC(=O)[C@H](CC(=O)OCc1ccccc1)NC(N)=O | 51 | 11900 | 22400 |
| CC(=O)N[C@@H](CS(=O)(=O)c1ccc2ccccc2n1)C(=O)N[C@@H](Cc1ccccc1)[C@H](O)Cc1ccccc1C(=O)NC(C)(C)C | 0.3 | 180 | 53 |
| CC(=O)N[C@@H](CSCc1ccccc1)C(=O)N[C@@H](Cc1ccccc1)[C@H](O)Cc1ccccc1C(=O)NC(C)(C)C | 45 | 3120 | 2910 |
| CC(=O)N[C@H](CS(=O)(=O)c1ccc2ccccc2c1)C(=O)N[C@@H](Cc1ccccc1)[C@H](O)Cc1ccccc1C(=O)NC(C)(C)C | 0.3 | 31 | 11 |
| CC(C)(C)NC(=O)c1ccccc1C[C@@H](O)[C@H](Cc1ccccc1)NC(=O)[C@@H](CC(=O)OCc1ccccc1)NS(C)(=O)=O | > 1000 |  |  |
| CC(=O)N[C@H](CSCc1ccccc1)C(=O)N[C@@H](Cc1ccccc1)[C@H](O)Cc1ccccc1C(=O)NC(C)(C)C | > 1000 |  |  |
| CC(C)(C)NC(=O)c1ccccc1C[C@@H](O)[C@H](Cc1ccccc1)NC(=O)[C@H](CC(=O)NCc1ccc2ccccc2n1)NS(C)(=O)=O | 8 | 1440 | 580 |
| CC(=O)N[C@@H](CSc1ccc2ccccc2c1)C(=O)N[C@@H](Cc1ccccc1)[C@H](O)Cc1ccccc1C(=O)NC(C)(C)C | 42 | 1000 | 1130 |
| CC(C)(C)NC(=O)c1ccccc1C[C@@H](O)[C@H](Cc1ccccc1)NC(=O)[C@H](CC(=O)OCc1ccccc1)NS(C)(=O)=O | 5.4 | 1270 | 1090 |
| CC(C)(C)NC(=O)c1ccccc1C[C@@H](O)[C@H](Cc1ccccc1)NC(=O)C(CC(N)=O)NC(=O)c1ccc2ccccc2n1 (single isomer, unassigned) |  |  | 23 |

Source: ChEMBL document CHEMBL1127904, “D-amino acids as novel P2/P3 ligands for inhibitors of HIV-1 protease” (Bioorg Med Chem Lett, 1994)
